Experimental data: patent US6730790B2, “Chlorinated heterocyclic compounds and methods of synthesis” (R.T. Alamo Ventures I. LLC, priority 2002, dated 2004)

What was measured:
Assay type in all cases: biochemical
[1] = target: T1, PDE3 partially purified from human platelets (Homo sapiens, UniProt Q14432); assay: PDE3 enzyme inhibition assay ([3H]cAMP hydrolysis, scintillation counting); conditions: for IC50: varying concentrations 300-1 μM
T1 construct: PDE3 partially purified from human platelets was used; from tissue; host or cells: human platelets
Description: In this example, a racemic mixture of monochloroflosequinan and the sulfone derivative of monochloroflosequinan were independently subjected to biochemical enzyme assays to determine their respective percent inhibition of a variety of phosphodiesterases (PDE1-PDE6). The methods used have been adapted from those described in the scientific literature, see Hidaka and Asano “Human blood platelet 3′:5′ cyclic nucleotide phosphodiesterase. Isolation of low-Km and high Km phosphodiesterase.” Biochem. Biophys. Acta 429:485 (1976); Nicholoson et at. “Differential modulation of tissue function and therapeutic potential of selective inhibitors of cyclic nucleotide phosphodiesterase isoenzymes” Trends Pharmacol. Sci. 12:19 (1991); Cortijo et al. “Investigation into the role of phosphodiesterase IV in bronchorelaxation, including studies with hyman bronchus.” Br. J. Pharmacol. 108:562 (1993); Baehr et al. “Isolation and characterization of cGMP phosphodiesterase from bovine rod outer segments.” J. Biol. Chem. 254:11669 (1979) and Gillespie and Beavo “Inhibition and stimulation of photoreceptor phosphodiesterase by dipyridamole and M&B 22,948” Molecular Pharm. 36:773 (1989). A brief summary of the conditions for each enzyme assay is provided below:
PDE3: PDE3 partially purified from human platelets was used. The compounds were independently incubated with 13 μg PDE3 enzyme and 1.01 μM [^3H]cAMP+cAMP in Tris buffer pH 7.5 for 20 minutes at either 25° C. or 30° C. The reaction was terminated by boiling for 2 minutes, and the resulting AMP was converted to adenosine by addition of 10 mg/ml snake venom nucleotidase and further incubation at 30° C. for 10 minutes. Unhydrolyzed cAMP was bound to AGI-X2 resin, and the remaining [^3H]adenosine in the aqueous phase was quantitated by scintillation counting.

[2] = target: T2, PDE1 partially purified from bovine heart (Bos taurus, UniProt P14100); assay: PDE1 enzyme inhibition assay ([3H]cAMP hydrolysis, scintillation counting)
T2 construct: PDE1 partially purified from bovine heart was used; from tissue; host or cells: bovine heart
Description: (§1) In this example, a racemic mixture of monochloroflosequinan and the sulfone derivative of monochloroflosequinan were independently subjected to biochemical enzyme assays to determine their respective percent inhibition of a variety of phosphodiesterases (PDE1-PDE6). The methods used have been adapted from those described in the scientific literature, see Hidaka and Asano “Human blood platelet 3′:5′ cyclic nucleotide phosphodiesterase. Isolation of low-Km and high Km phosphodiesterase.” Biochem. Biophys. Acta 429:485 (1976); Nicholoson et at. “Differential modulation of tissue function and therapeutic potential of selective inhibitors of cyclic nucleotide phosphodiesterase isoenzymes” Trends Pharmacol. Sci. 12:19 (1991); Cortijo et al. “Investigation into the role of phosphodiesterase IV in bronchorelaxation, including studies with hyman bronchus.” Br. J. Pharmacol. 108:562 (1993); Baehr et al. “Isolation and characterization of cGMP phosphodiesterase from bovine rod outer segments.” J. Biol. Chem. 254:11669 (1979) and Gillespie and Beavo “Inhibition and stimulation of photoreceptor phosphodiesterase by dipyridamole and M&B 22,948” Molecular Pharm. 36:773 (1989). […]
PDE1: PDE1 partially purified from bovine heart was used. […] Unhydrolyzed cAMP was bound to AGI-X2 resin, and the remaining [^3H]adenosine in the aqueous phase was quantitated by scintillation counting.

[3] = target: T3, PDE2 partially purified from human platelets (Homo sapiens, UniProt O00408); assay: PDE2 enzyme inhibition assay ([3H]cAMP hydrolysis, scintillation counting)
T3 construct: PDE2 partially purified from human platelets was used; from tissue; host or cells: human platelets
Description: as §1
PDE2: PDE2 partially purified from human platelets was used. […] Unhydrolyzed cAMP was bound to AGI-X2 resin, and the remaining [^3H]adenosine in the aqueous phase was quantitated by scintillation counting.

[4] = 100 μM compound, 30° C., 1% DMSO vehicle
[5] = varying concentrations 300-1 μM

T1 sequence (Q14432 whole entry): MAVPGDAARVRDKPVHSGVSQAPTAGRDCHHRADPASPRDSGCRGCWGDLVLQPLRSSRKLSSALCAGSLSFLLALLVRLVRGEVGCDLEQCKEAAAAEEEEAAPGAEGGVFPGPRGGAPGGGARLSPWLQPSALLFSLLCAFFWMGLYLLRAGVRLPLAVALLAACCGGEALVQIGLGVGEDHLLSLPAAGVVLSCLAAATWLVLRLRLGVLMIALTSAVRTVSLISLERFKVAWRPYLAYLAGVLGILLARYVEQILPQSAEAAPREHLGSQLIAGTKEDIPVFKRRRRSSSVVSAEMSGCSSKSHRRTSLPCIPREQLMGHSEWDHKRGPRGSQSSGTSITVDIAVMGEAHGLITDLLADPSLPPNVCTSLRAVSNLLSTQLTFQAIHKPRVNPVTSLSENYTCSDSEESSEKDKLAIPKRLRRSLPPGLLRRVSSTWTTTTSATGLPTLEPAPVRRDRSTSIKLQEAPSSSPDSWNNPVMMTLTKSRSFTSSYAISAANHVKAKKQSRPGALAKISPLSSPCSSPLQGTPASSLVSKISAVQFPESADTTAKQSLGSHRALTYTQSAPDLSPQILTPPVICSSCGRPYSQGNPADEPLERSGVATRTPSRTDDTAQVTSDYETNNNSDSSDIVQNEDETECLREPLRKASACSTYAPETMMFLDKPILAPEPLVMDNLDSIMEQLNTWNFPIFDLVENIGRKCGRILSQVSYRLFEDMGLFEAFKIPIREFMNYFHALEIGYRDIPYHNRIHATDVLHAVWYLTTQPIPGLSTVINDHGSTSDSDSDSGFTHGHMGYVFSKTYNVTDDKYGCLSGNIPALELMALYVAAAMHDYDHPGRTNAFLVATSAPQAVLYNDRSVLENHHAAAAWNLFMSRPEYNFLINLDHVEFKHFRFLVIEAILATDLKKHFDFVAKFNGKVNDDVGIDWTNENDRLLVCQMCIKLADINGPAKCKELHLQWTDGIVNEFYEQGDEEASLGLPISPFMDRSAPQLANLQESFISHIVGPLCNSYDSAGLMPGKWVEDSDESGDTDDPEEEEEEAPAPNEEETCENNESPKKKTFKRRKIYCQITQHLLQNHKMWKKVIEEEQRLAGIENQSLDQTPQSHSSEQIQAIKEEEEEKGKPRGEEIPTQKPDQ
T3 sequence (O00408 whole entry): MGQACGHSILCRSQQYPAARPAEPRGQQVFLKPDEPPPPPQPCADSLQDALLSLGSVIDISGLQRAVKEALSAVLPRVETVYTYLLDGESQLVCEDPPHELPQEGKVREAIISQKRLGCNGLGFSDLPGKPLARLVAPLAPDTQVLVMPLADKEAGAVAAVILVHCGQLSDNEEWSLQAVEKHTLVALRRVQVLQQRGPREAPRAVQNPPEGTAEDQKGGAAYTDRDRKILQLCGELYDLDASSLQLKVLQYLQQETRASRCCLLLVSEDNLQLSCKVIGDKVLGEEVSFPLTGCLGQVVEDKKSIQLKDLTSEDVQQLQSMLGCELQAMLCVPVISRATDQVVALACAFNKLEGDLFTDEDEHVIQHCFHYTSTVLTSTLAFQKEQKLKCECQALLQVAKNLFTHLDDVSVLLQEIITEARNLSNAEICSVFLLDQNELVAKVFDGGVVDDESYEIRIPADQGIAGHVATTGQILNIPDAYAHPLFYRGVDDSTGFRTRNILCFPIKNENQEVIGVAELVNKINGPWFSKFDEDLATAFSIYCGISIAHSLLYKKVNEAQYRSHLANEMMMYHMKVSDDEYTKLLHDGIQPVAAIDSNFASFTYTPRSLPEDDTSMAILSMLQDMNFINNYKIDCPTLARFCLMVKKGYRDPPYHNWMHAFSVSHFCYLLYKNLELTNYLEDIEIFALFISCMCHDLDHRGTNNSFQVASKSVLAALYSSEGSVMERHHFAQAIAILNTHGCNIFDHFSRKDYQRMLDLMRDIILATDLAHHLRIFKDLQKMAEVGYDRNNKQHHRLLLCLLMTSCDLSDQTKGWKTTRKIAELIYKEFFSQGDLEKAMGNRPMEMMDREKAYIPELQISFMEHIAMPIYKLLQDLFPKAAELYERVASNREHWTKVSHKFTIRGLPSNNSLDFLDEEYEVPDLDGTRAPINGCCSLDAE
T2 sequence (P14100 1-514 isoform P14100-2): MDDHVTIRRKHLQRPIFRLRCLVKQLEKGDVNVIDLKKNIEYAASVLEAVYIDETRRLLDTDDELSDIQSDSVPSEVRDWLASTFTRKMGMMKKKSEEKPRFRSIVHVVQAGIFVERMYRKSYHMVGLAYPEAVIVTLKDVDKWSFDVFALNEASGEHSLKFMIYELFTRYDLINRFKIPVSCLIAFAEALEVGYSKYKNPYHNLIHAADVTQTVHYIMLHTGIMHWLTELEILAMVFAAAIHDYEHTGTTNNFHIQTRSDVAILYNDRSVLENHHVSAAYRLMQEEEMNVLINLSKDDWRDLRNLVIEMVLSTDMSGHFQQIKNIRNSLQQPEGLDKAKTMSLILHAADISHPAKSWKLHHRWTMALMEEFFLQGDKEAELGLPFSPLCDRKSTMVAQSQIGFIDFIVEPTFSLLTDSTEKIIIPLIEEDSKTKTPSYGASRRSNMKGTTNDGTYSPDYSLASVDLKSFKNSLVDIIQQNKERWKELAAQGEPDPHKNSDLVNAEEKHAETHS

`Cn1cc(S(=O)(=O)CCl)c(=O)c2ccc(F)cc21` [monochloroflosequinan sulfone, 3-chloromethylsulfonyl-7-fluoro-1-methyl-4-quinolone] gave an inhibition at 100 µM ([1]; 100 μM compound, 25° C., 1% DMSO vehicle) of over 50% and an IC50 [1] of 95.9 µM.
With `Cn1cc([S+]([O-])CCl)c(=O)c2ccc(F)cc21` (racemic) [monochloroflosequinan, 3-chloromethylsulfinyl-7-fluoro-1-methyl-4-quinolone] the “inhibition of PDE1” value [2, 4] was “Significant inhibition”, the IC50 [2, 5] was 65.6 µM and the “inhibition of PDE3” value [1, 4] was “Significant inhibition”. The IC50 [1] was 28.2 µM, the “inhibition of PDE2” value [3, 4] was “Significant inhibition” and the IC50 [3, 5] was over 300 µM.
